# Laboratory results as given in ChEMBL document CHEMBL4196200 (J Med Chem, 2018).
# Experiments:
# Vasopressin V2 receptor [1] = biological target: T1, Vasopressin V2 receptor (Homo sapiens, UniProt P30518); assay: Displacement of [3H]-AVP from human V2 receptor expressed in CHO cell membranes by radioligand binding assay
# Homo sapiens [2] = organism: Homo sapiens; assay: Selectivity for human OTR receptor over human V2 receptor
# [3] = biological target: T2, Oxytocin receptor (Homo sapiens) (UniProt P30559); assay: Antagonist activity at human OTR receptor expressed in CHO cells assessed as inhibition of OT-induced myo-inositol 1-phosphate accumulation at 1 uM by IP-One assay relative to OT; assay type: functional, cell-based
# T2 sequence (whole entry): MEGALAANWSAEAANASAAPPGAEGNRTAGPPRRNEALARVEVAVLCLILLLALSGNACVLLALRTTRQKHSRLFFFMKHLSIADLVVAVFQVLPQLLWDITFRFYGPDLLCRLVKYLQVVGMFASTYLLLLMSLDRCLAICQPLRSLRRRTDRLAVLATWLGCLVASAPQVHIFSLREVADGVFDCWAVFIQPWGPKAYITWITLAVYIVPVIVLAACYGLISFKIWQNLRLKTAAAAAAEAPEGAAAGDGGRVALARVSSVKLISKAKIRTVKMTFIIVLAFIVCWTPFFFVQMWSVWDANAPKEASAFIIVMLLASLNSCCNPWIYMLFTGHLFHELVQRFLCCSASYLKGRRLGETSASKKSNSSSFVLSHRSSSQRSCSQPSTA
# Vasopressin V1a receptor [4] = biological target: T3, Vasopressin V1a receptor (Homo sapiens, UniProt P37288); assay: Agonist activity at human V1A receptor expressed in CHO cells assessed as increase in myo-inositol 1-phosphate accumulation at 1 uM by IP-One assay relative to AVP; assay type: functional, cell-based
# Target sequence in this assay (P37288 whole entry, looked up): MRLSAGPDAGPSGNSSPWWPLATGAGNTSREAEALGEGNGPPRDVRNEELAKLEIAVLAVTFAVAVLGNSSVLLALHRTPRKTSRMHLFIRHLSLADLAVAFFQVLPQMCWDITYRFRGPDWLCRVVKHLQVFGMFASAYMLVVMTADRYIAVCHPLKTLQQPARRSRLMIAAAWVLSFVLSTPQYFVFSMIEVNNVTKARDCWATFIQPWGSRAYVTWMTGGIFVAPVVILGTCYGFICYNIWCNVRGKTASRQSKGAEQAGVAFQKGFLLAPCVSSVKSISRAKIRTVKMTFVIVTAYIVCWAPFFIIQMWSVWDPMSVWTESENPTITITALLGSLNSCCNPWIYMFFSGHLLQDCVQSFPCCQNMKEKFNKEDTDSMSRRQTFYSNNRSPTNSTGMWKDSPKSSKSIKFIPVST
# Homo sapiens [5] = organism: Homo sapiens; assay: Selectivity for human V1a receptor over human V2 receptor
# Vasopressin V1a receptor [6] = biological target: T3, Vasopressin V1a receptor; assay: Displacement of [3H]-AVP from human V1A receptor expressed in CHO cell membranes by radioligand binding assay
# Target sequence in this assay (P37288 whole entry): as the sequence (P37288 whole entry, looked up) above
# Vasopressin V1a receptor [7] = biological target: T3, Vasopressin V1a receptor; assay: Antagonist activity at human V1A receptor expressed in CHO cells assessed as inhibition of AVP-induced myo-inositol 1-phosphate accumulation at 1 uM by IP-One assay relative to AVP; assay type: functional, cell-based
# Target sequence in this assay (P37288 whole entry, looked up): as above
# Oxytocin receptor = biological target: T4, Oxytocin receptor (Homo sapiens, UniProt P30559); assay: Displacement of [3H]-AVP from human OXR receptor expressed in CHO cell membranes by radioligand binding assay
# T4 sequence (P30559 whole entry): T2 sequence (whole entry)
# Vasopressin V2 receptor [8] = biological target: T1, Vasopressin V2 receptor; assay: Agonist activity at human V2 receptor expressed in CHO cells assessed as increase in cAMP accumulation by cAMP dynamic 2 assay; assay type: functional, cell-based
# [9] = biological target: T2, Oxytocin receptor (Homo sapiens); assay: Agonist activity at human OTR receptor expressed in CHO cells assessed as increase in myo-inositol 1-phosphate accumulation at 1 uM by IP-One assay relative to OT; assay type: functional, cell-based
# Vasopressin V1a receptor [10] = biological target: T3, Vasopressin V1a receptor; assay: Antagonist activity at human V1A receptor expressed in CHO cells assessed as inhibition of AVP-induced myo-inositol 1-phosphate accumulation by IP-One assay; assay type: functional, cell-based
# Target sequence in this assay (P37288 whole entry, looked up): as above
# [11] = biological target: T2, Oxytocin receptor (Homo sapiens); assay: Antagonist activity at human OTR receptor expressed in CHO cells assessed as inhibition of OT-induced myo-inositol 1-phosphate accumulation by IP-One assay; assay type: functional, cell-based
# T1 sequence (P30518 whole entry): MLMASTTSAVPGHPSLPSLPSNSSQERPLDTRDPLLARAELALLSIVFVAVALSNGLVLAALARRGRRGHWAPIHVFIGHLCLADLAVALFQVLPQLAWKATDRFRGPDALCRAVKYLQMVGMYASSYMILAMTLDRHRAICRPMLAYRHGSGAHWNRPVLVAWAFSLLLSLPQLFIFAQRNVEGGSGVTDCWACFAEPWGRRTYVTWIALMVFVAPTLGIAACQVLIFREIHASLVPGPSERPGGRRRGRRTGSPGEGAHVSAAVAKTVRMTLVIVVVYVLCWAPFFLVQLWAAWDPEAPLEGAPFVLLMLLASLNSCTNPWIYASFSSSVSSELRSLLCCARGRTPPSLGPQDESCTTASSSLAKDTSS
Compound,Ki (Vasopressin V2 receptor [1]) [nM],Selectivity ratio (Homo sapiens [2]),inhibition [3] [%],Emax (Vasopressin V1a receptor [4]) [%],Selectivity ratio (Homo sapiens [5]),Ki (Vasopressin V1a receptor [6]) [nM],inhibition (Vasopressin V1a receptor [7]) [%],Ki (Oxytocin receptor) [nM],Kact (Vasopressin V2 receptor [8]) [nM],Emax [9] [%],Kinact (Vasopressin V1a receptor [10]) [nM],Kinact [11] [nM]
Cc1ccn(-c2ccc(C(=O)N3CCCC(O)c4ccccc43)cc2)n1 (stereo not drawn),1150,0.6,45,< 10,0.14,164,69,686,,,,
Cc1ccn(-c2ccc(C(=O)N3CCCC(=O)c4ccccc43)cc2)n1,> 1000,,,< 10,,< 10,19,< 10,,,,
Cc1ccn(-c2ccc(C(=O)N3CCCC(N(C)C)c4ccccc43)cc2)n1 (stereo not drawn),> 1000,,21,< 10,< 0.74,741,15,1330,,,,
Nc1ccc(C(=O)N2CCCCc3ccccc32)cc1,> 1000,,15,< 10,,734,37,< 10,,< 10,,
C[N+](C)(C)c1ccc(C(=O)N2CCCCc3ccccc32)cc1,> 1000,,19,< 10,,> 1000,15,< 10,,< 10,,
CC(=O)Nc1ccc(C(=O)N2CCCCc3ccccc32)cc1,> 1000,,32,< 10,,1080,,> 1000,,< 10,305,
Cc1ccn(-c2ccc(C(=O)N3Cc4cnn(C)c4Nc4ccccc43)c(Cl)c2)n1,,0.59,,< 10,0.93,,,,8.4,,,

# Results, then the molecule that gave them:
Ki (Vasopressin V2 receptor [1]) [nM],Selectivity ratio (Homo sapiens [2]),inhibition [3] [%],Emax (Vasopressin V1a receptor [4]) [%],Selectivity ratio (Homo sapiens [5]),Ki (Vasopressin V1a receptor [6]) [nM],inhibition (Vasopressin V1a receptor [7]) [%],Ki (Oxytocin receptor) [nM],Kact (Vasopressin V2 receptor [8]) [nM],Emax [9] [%],Kinact (Vasopressin V1a receptor [10]) [nM],Kinact [11] [nM],Compound
< 10,,14,< 10,,< 10,< 10,< 10,,,,,Cc1ccn(-c2ccc(C(=O)N3CCCC(=O)c4ccccc43)c(Cl)c2)n1
100,8,28,< 10,> 100,< 10,26,800,28,,,,Cc1ccn(-c2ccc(C(=O)N3CCCC(O)c4ccccc43)c(Cl)c2)n1 (stereo not drawn)
334,,30.6,< 10,,573,,340,,< 10,177,,O=C(c1ccc(-c2ncccn2)cc1)N1CCCCc2ccccc21
< 10,,< 10,< 10,,< 10,< 10,< 10,,,,,Cc1ccn(-c2ccc(C(=O)N3CCCCCC3)c(Cl)c2)n1
507,,24.1,< 10,,556,,< 10,,< 10,149,,O=C(c1ccc(Cl)cc1)N1CCCCc2ccccc21
121,,,< 10,,63,,104,92,< 10,184,172,CCCc1ccc(C(=O)N2CCCCc3ccccc32)cc1
713,,20,< 10,,504,,< 10,,< 10,218,,O=C(c1ccc(Br)cc1)N1CCCCc2ccccc21
468,,,< 10,,82,,> 1000,80,< 10,81,186,CN(C)c1ccc(C(=O)N2CCCCc3ccccc32)cc1
52,,,< 10,,28,,37.4,18,< 10,421,113,CCCCc1ccc(C(=O)N2CCCCc3ccccc32)cc1
160,,36,< 10,,48,,396,,< 10,15,,O=C(c1ccc(I)cc1)N1CCCCc2ccccc21
